Measured values published in patent publication US20240299535A1, “TARGETED GLYCOSAMINOGLYCAN-PARTICLES AND METHODS OF USE” (priority 2021, published 2024).

Legend:
RAW 264.7 macrophages [1] = test: HEP structural analog competition of HEP-AuNP uptake (ICP-MS); type: cell-based, murine; conditions: pre-incubation with competitor
Text: To quantify the nanoparticles' cellular interactions, we performed quantitative ICP-MS and corroborated the results qualitatively with light microscopy. […] No significant competition with the remaining structural analogs was observed.

RAW 264.7 macrophages [2] = system: RAW 264.7 macrophages
Text: We next investigated whether the CS A inhibitory effect of HEP-AuNP uptake was due to a potential toxicity effect of the CS A preparation, which was extracted from a mammalian source.

cell uptake of HEP-AuNPs = test: CS A competition as a function of time and concentration (ICP-MS); type: cell-based
Text: We further assessed the competition effect of CS A as a function of time and concentration at non-cytotoxic levels. […] These competition experiments with GAG structural analog polymers imply that CS A can substitute to some degree as a ligand for HEP for the internalization receptor(s).

DC 2.4 dendritic cells [3] = test: CS A competition of HEP-AuNP uptake (ICP-MS); type: cell-based, murine; conditions: 1 hour pre-incubation, nanoparticles 2.5 hour; non-cytotoxic doses
Text: Next, we expanded the structural analog competition study to DC 2.4 dendritic cells. […] We quantified the competition efficiency by ICP-MS and corroborated the results with light microscopy.

RAW 264.7 macrophages [4] = test: Endocytosis inhibition study of HEP-AuNP uptake (ICP-MS); type: cell-based, murine; conditions: for nanoparticle cellular uptake inhibition efficiencies / effect on nanoparticle cellular uptake: inhibitor screen, 1 h pre-incubation, nanoparticles 1.5 hours; for inhibitory effects for nanoparticle uptake: dose escalation, 0-31.4 μM chlorpromazine, 0-3.9 μM cytochalasin D
Protocol: Panel (A) is a schematic representation of the uptake pathway study: (i) non-specific endocytosis inhibition to determine whether nanoparticle cellular uptake is energy-dependent. (ii-iv) Specific endocytosis inhibitors for studying (ii) caveolae-mediated endocytosis, (iii) clathrin-mediated endocytosis, and (iv) macropinocytosis. Panels (B) to (D) are ICP-MS quantification of the nanoparticle cellular uptake in RAW 264.7 macrophages at 4° C.—Panel (B), in the presence of ATPase inhibitor sodium azide—Panel (C), or chemical endocytosis inhibitors of caveolae-mediated endocytosis, clathrin-mediated endocytosis, and […]—Panel (D). AuNPs modified with 13-kDa HEP (at 0.2 nM) were used as control without inhibitors at 37° C. Bars indicate mean±SD (n=3-4); statistical tests used one-way ANOVA (p<0.0001 (****); p<0.0021 (**); p<0.0332 (*).
We hypothesized that these nanoparticles might enter cells via endocytosis by one or more energy-dependent uptake pathways. Thus, we carried out a systematic endocytosis inhibition study to discern which uptake pathways were involved.
First, we pre-incubated the innate immune cells for 1 h with the endocytosis inhibitors. Then we added the nanoparticles and incubated them with the cells for 1.5 hours. We imaged the cells with a light microscope and quantified the nanoparticle uptake by ICP-MS (FIG. 2, Panel (D)).
(§1) We performed systematic dose escalation studies to assess the dose-response of the inhibitory effect and the cell toxicity of these two agents. Based on the previous dose screening experiments and published cell viability data the dose ranges were 0-31.4 μM and 0-3.9 μM for chlorpromazine and cytochalasin D, respectively.

DC 2.4 dendritic cells [5] = test: as above; type: cell-based, murine
Protocol: To test whether the HEP-coated nanoparticles could enter cells through clathrin-mediated endocytosis and macropinocytosis and/or phagocytosis in another immune cell line, we conducted further inhibition experiments in DC 2.4 dendritic cells. […] Additionally, we co-incubated chlorpromazine and cytochalasin D inhibitors with cells to test if there was any additive endocytosis inhibitory effect.

RAW264.7 macrophages = test: Cell viability assays with endocytosis inhibitors; conditions: 0-31.4 μM chlorpromazine, 0-3.9 μM cytochalasin D
Protocol: as §1

For heparin, the “reduction of cellular uptake of HEP-AuNPs vs no-competitor group” value (shortened to “reduction … vs no-competitor group”) (RAW 264.7 macrophages [1]) was “approximately 18%”.

Chondroitin Sulfate A [CS A] was tested, and the “reduction … vs no-competitor group” value (RAW 264.7 macrophages [1]) was roughly 43%, the “effect on cell viability” value (RAW 264.7 macrophages [2]) was “did not affect cell viability” and the “IC50 (inhibitor dose-response of HEP-AuNP uptake)” value (cell uptake of HEP-AuNPs) was 500 µg/mL. For the same molecule, the “inhibitory effect over time” value (cell uptake of HEP-AuNPs; 1 mg/mL) was “persisted throughout time”, the “suppression of cellular uptake of HEP-AuNPs” value (cell uptake of HEP-AuNPs; 2 mg/mL) was “up to 9 fold” and the “nanoparticle uptake vs no-competitor group” value (DC 2.4 dendritic cells [3]) was “lower nanoparticle uptake”.

For `CCN(CC)CCCC(C)Nc1ccnc2cc(Cl)ccc12` (centres unmarked) [chloroquine], the “nanoparticle cellular uptake inhibition efficiencies” value (RAW 264.7 macrophages [4]) was roughly 12%.

For `C=C1[C@@H](C)[C@H]2[C@H](Cc3ccccc3)NC(=O)[C@]23[C@H](OC(C)=O)/C=C/[C@@](C)(O)C(=O)[C@@H](C)C/C=C/[C@H]3[C@@H]1O` [cytochalasin D], the “reduction of HEP-AuNP uptake” value (DC 2.4 dendritic cells [5]) was “approximately 77%”, the “cytotoxicity of inhibitor doses” value (RAW264.7 macrophages) was “not cytotoxic” and the “inhibitory effects for nanoparticle uptake” value (RAW 264.7 macrophages [4]) was “approximately 51%”. The “nanoparticle cellular uptake inhibition efficiencies” value (RAW 264.7 macrophages [4]) was roughly 24%.

For `CCCCC[C@@H](O)[C@H]1C(=O)O[C@H](C)[C@@H](O)/C=C/C=C/C=C/C=C/C=C(\C)[C@@H](O)C[C@H](O)C[C@H](O)C[C@H](O)C[C@H](O)C[C@H](O)C[C@@H]1O` [Filipin], the “effect on nanoparticle cellular uptake” value (RAW 264.7 macrophages [4]) was “did not reduce the nanoparticle cellular uptake”.

With `CN(C)CCCN1c2ccccc2CCc2ccccc21` [imipramine] the “nanoparticle cellular uptake inhibition efficiencies” value (RAW 264.7 macrophages [4]) was roughly 8%.

With `[N-]=[N+]=[N-]` [sodium azide] the “reduction of cellular uptake of HEP-AuNPs” value (RAW 264.7 macrophages [4]; 0.1% w/v sodium azide) was “approximately 22%”.

`O=C(N/N=C/c1ccc(O)c(O)c1)c1cc2ccccc2cc1O` [Dynasore] was tested, and the “effect on nanoparticle cellular uptake” value (RAW 264.7 macrophages [4]) was “did not reduce the nanoparticle cellular uptake”.

For `CCN(c1nc(N)c(C(=O)N=C(N)N)nc1Cl)C(C)C` [EIPA, 5-(N-ethyl-N-isopropyl) amiloride], the “effect on nanoparticle cellular uptake” value (RAW 264.7 macrophages [4]) was “did not reduce the nanoparticle cellular uptake”.

In the case of `CN(C)CCCN1c2ccccc2Sc2ccc(Cl)cc21` [chlorpromazine], the “reduction of HEP-AuNP uptake” value (DC 2.4 dendritic cells [5]) is reported as “approximately 77%”, the “cytotoxicity of inhibitor doses” value (RAW264.7 macrophages) is reported as “not cytotoxic” and the “inhibitory effects for nanoparticle uptake” value (RAW 264.7 macrophages [4]) is reported as “approximately 70%”. The “nanoparticle cellular uptake inhibition efficiencies” value (RAW 264.7 macrophages [4]) was “approximately 73%”.

In the case of `CCN1C(=O)C=CC1=O` [N-ethylmaleimide], the “effect on nanoparticle cellular uptake” value (RAW 264.7 macrophages [4]) is reported as “did not reduce the nanoparticle cellular uptake”.

Chondroitin Sulfate C [CS C] was tested, and the “reduction … vs no-competitor group” value (RAW 264.7 macrophages [1]) was “approximately 15%”.
